This note sets out measurements from article PMC10937556, “Phenolic phytochemistry, in vitro, in silico, in vivo, and mechanistic anti-inflammatory and antioxidant evaluations of Habenaria digitata” (Frontiers in Pharmacology, 2024).

SMILES strings stand for the structures. Structures can show the parent of a compound that is named as a salt.

Assay [1] is described as follows: ABTS free radical scavenging assay. As to the method:
The ABTS anti-radicals’ analysis was carried out according to [Shah et al. (2015)]. The ABTS solution was prepared by dissolving ABTS salt (192 mg) in distilled H2O, transferred to a flask (50 mL), and volume was adjusted. Thereafter, 1 mL of the preceding solution was added to 17 µL of K₂S₂O₈ (140 mM) and placed in the dark for 24 h s. The experiment’s ultimate ABTS dilution was achieved by mixing 1 mL of the reaction mixture with 50 mL of methanol. The ABTS solution (190 µL) was mixed with the sample solution (10 µL) and added to 96-well plates, which were then incubated at room temperature in dark for 2 h. Following incubation, the measurement of ABTS color intensity was conducted using a microplate reader at 734 nm. Positive control solutions were prepared at values of 1,000–62.5 µM. The percentage of ABTS scavenging was determined by using the following equation: % ABTS scavenging=Control−Sample/control×100.

Assay [2] is described as follows: H2O2 free radical scavenging activity. The method, then:
The antioxidant potential of isolated compounds was determined using this approach. In a phosphate buffer solution (50 mM, pH 7.40), a solution of H2O2 (2 mM) was produced. The crude extract (0.10 mL) was measured in a test tube and diluted to 0.40 mL using phosphate buffer. Thereafter, H2O2 (0.60 mL) was added and thoroughly mixed. […] 230 nm was used to measure the absorbance of the sample and the standard ([Sadiq et al., 2018]). For all the crude samples, the exact process was followed. According to the procedure, the inhibition percentage and IC50 values were computed.

Assay [3] in a line: DPPH free radical scavenging assay. As to the method: The DPPH (anti-radicals) investigation was carried out according to our earlier reported protocols. Initially, a methanolic DPPH solution was prepared with a concentration of 0.1%. Subsequently, 100 µL of this solution was mixed with an equal volume of the test samples (100 µL) in 96-well plates, following a 30-min incubation period at 25°C ± 3 °C in the dark. Solutions with concentrations ranging from […] were prepared. Five concentrations of 1,000, 500, 250, 125, and 62.5 µM of the Trolox methanolic solution ([…]) were formed. A color reduction in DPPH was observed after incubation; a microplate reader was used, and absorbance was measured at 540 nm ([Mahnashi et al., 2022a]; [Huneif et al., 2022]). The percentage of scavenging was determined by the formula: Scavenging effect %=control absorbance−sample absorbance/control absorbance×100.
(In general: The DPPH test is a chemical assay of radical scavenging.)

The test system of assay [4] is carrageenan-induced paw edema. The experiment in a line: Carrageenan-induced paw edema. It is filed as in vivo, mice. The note with it: dose 5 mg/kg. The method, then:
Mice of both sexes (25–30 g) were used for in vivo anti-inflammatory activity of test samples on the carrageenan-induced inflammation model ([Munir et al., 2020]). Mice were distributed into five groups, with eight animals in each group, divided at random. Group-I served as the negative control and received DMSO at a dose of 10 mL/kg body weight. Group-II served as a positive control, which received aspirin at a dose of 100 mg/kg body weight. […] Each mouse received 1 percent (w/v) saline solution (0.05 mL) of carrageenan in the sub-planter region after a 30-min interval. The paw edema volume was determined using a plethysmometer (LE 7500-plan lab S.L) at 1–5 h intervals after carrageenan was given. […] The percentages of inhibition of inflammation were calculated using the formula given below: % inhibition=EC−ET/EC×100, where “EC” is the average edema of control and “ET” is the edema of the tested group.
On the technique in general: In the carrageenan paw model, swelling and tenderness develop within hours.

Assay [5] concerns prostaglandin E2-induced paw edema. The experiment in a line: Prostaglandin E2-induced paw edema. Conditions: 50 mg/kg.
Method: (§1) Employing prostaglandin E2, bradykinin, leukotriene, and histamine induced paw edema assays; the potential anti-inflammatory mechanism of the isolated compound was investigated. […] Sub-planter injections of prostaglandin E2 (0.01 mg/mL) or 10 mg/mL leukotriene or bradykinin (20 mg/mL) or 0.1 mL histamine (1 mg/mL) produced paw edema after 1 h. Each mouse’s paw volume was assessed immediately before and after sub-planter injection of various irritants (inflammatory agents) at 1–5 h.
The test system of assay [6] is leukotriene-induced paw edema. The experiment in a line: Leukotriene-induced paw edema. Conditions: standard drug, 3rd hour.
Method: as §1
The test system of a further assay is SOD. The experiment in a line: In vivo antioxidant: SOD activity in brain, heart, liver. On the set-up: species or system mice. Conditions: p < 0.05, D-galactose aging mice.
Assay [7] relates to histamine-induced paw edema. The assay is described as follows: Histamine-induced paw edema. The note with it: reference drug, 1 h.
Method: as §1

With `O=C1O[C@H]([C@@H](O)CO)C(O)=C1O` [AA, ascorbic acid, reference compound], the “ABTS IC50” value in assay [1] is given as 0.12 µg/mL. In addition, the ABTS % inhibition in assay [1] (62.5 µg/mL) stood at 81.12 ± 0.34%; in assay [1] (125 µg/mL), 84.47 ± 0.49%; in assay [1] (250 µg/mL) it was 87.75 ± 0.14%; in assay [1] (500 µg/mL), 91.59 ± 0.30%; in assay [1] (1,000 µg/mL), 95.85 ± 0.18%. Also, the “H2O2 IC50” value in assay [2] came to 02 µg/mL. Besides, the H2O2 % inhibition is reported as 71.73 ± 0.66% in assay [2] (62.5 µg/mL); 73.70 ± 0.35% in assay [2] (125 µg/mL); 78.07 ± 0.62% in assay [2] (250 µg/mL); 83.01 ± 0.42% in assay [2] (500 µg/mL); 87.50 ± 2.26% in assay [2] (1,000 µg/mL). Further, in assay [3], the “DPPH IC50” value worked out at 0.47 µg/mL. The DPPH % inhibition in assay [3] (62.5 µg/mL) was determined as 81.35 ± 0.18%; in assay [3] (125 µg/mL), 84.20 ± 0.15%; in assay [3] (250 µg/mL) it was 88.42 ± 0.11%; in assay [3] (500 µg/mL), 93.62 ± 0.17%; in assay [3] (1,000 µg/mL), 97.53 ± 0.20%.
As for `CC(=O)Oc1ccccc1C(=O)O` [Aspirin, reference compound], the “Percentage inhibition of paw edema” value in assay [4] (1 h) turned out to be 47.50 ± 1.10 %; in assay [4] (2 h), 53.61 ± 1.45 %; in assay [4] (3 h) it was 54.24 ± 1.34 %; in assay [4] (4 h), 57.90 ± 1.93 %; in assay [4] (5 h), 58.62 ± 1.53 %; in assay [4] (5 h, listed as aspirin) it was 58.62%.
In the case of `Cc1ccc(-c2cc(C(F)(F)F)nn2-c2ccc(S(N)(=O)=O)cc2)cc1` [Celecoxib, reference compound], in assay [5], the “Effect on increased PGE2 level” value was “significant reduction”.
On to `CC(C)(O)c1ccccc1CC[C@@H](SCC1(CC(=O)O)CC1)c1cccc(/C=C/c2ccc3ccc(Cl)cc3n2)c1` [Montelukast, reference compound], for which the “Percentage inhibition of leukotriene-induced paw edema” value in assay [6] is on record as 67.02 ± 1.74%.
In the case of `Cc1c(C)c2c(c(C)c1O)CCC(C)(C(=O)O)O2` (stereo not shown) [Trolox, reference compound], in the assay with SOD, the “SOD activity compared to the model group” value was “higher”.
Take `CN(C)CCC(c1ccc(Cl)cc1)c1ccccn1` (stereo not shown) [chlorpheniramine maleate, reference compound]: the “Percentage inhibition of histamine-induced paw edema” value in assay [7] stood at 71.62 ± 1.16%.
